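Tested at 5 concentrations; 48 h exposure; 96-well plates; endpoints linearly interpolated, else capped at highest concentration. The concentration for 50% growth inhibition is given as GI50.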 Active and inactive are the calls of the source. No stated cut-off is given here; in the data, active = GI50 up to about 1.1 µM and inactive = higher.
Columns and labels:
Test in all cases: DTP human tumour cell line panel, 48 h
HOP-92 = test system: HOP-92
CAKI-1 = test system: CAKI-1
K562 = test system: K562
HL-60 = test system: HL-60
NCI-H23 = test system: NCI-H23
IGROV-1 = test system: IGROV-1
MDA-N = test system: MDA-N
COLO 205 = test system: COLO 205
OVCAR-3 = test system: OVCAR-3
SK-MEL-2 = test system: SK-MEL-2
KM12 = test system: KM12
SF-539 = test system: SF-539
SR = test system: SR
OVCAR-8 = test system: OVCAR-8
RPMI-8226 = test system: RPMI-8226
T47D = test system: T47D
SF-268 = test system: SF-268
OVCAR-5 = test system: OVCAR-5
SN12C = test system: SN12C
NCI/ADR-RES = test system: NCI/ADR-RES
DU-145 = test system: DU-145
SNB-75 = test system: SNB-75
SK-MEL-28 = test system: SK-MEL-28
NCI-H460 = test system: NCI-H460
A549 = test system: A549
LOX IMVI = test system: LOX IMVI
RXF 393 = test system: RXF 393
EKVX = test system: EKVX
UO-31 = test system: UO-31
UACC-257 = test system: UACC-257
SK-OV-3 = test system: SK-OV-3
Malme-3M = test system: Malme-3M
MDA-MB-231 = test system: MDA-MB-231
UACC-62 = test system: UACC-62
NCI-H522 = test system: NCI-H522
HCT-15 = test system: HCT-15
SW-620 = test system: SW-620
SNB-19 = test system: SNB-19
786-0 = test system: 786-0
A498 = test system: A498
Hs-578T = test system: Hs-578T
MCF7 = test system: MCF7
NCI-H226 = test system: NCI-H226
BT-549 = test system: BT-549
HT-29 = test system: HT-29
HOP-62 = test system: HOP-62
U-251 = test system: U-251
ACHN = test system: ACHN
PC-3 = test system: PC-3
SF-295 = test system: SF-295
OVCAR-4 = test system: OVCAR-4
TK-10 = test system: TK-10
MDA-MB-435 = test system: MDA-MB-435
M14 = test system: M14
HCT-116 = test system: HCT-116
SK-MEL-5 = test system: SK-MEL-5
HCC 2998 = test system: HCC 2998
CCRF-CEM = test system: CCRF-CEM
MOLT-4 = test system: MOLT-4

Measured: GI50

CC(C)(N)C(=O)N[C@@H]1C(=O)N2[C@@H]1SC(C)(C)[C@@H]2C(=O)O
> 100 µM: HCT-15
inactive: HOP-92 > 100 µM | CAKI-1 > 100 µM | K562 > 100 µM | NCI-H23 > 100 µM | IGROV-1 > 100 µM | MDA-N > 100 µM | COLO 205 > 100 µM | OVCAR-3 > 100 µM | SK-MEL-2 > 100 µM | KM12 > 100 µM | SF-539 > 100 µM | SR > 100 µM | OVCAR-8 > 100 µM | RPMI-8226 > 100 µM | T47D > 100 µM | SF-268 > 100 µM | OVCAR-5 > 100 µM | SN12C > 100 µM | NCI/ADR-RES > 100 µM | DU-145 > 100 µM | SNB-75 > 100 µM | SK-MEL-28 > 100 µM | NCI-H460 > 100 µM | A549 > 100 µM | LOX IMVI > 100 µM | RXF 393 > 100 µM | EKVX > 100 µM | UO-31 > 100 µM | UACC-257 > 100 µM | SK-OV-3 > 100 µM | Malme-3M > 100 µM | MDA-MB-231 > 100 µM | UACC-62 > 100 µM | NCI-H522 > 100 µM | SW-620 > 100 µM | SNB-19 > 100 µM | 786-0 > 100 µM | A498 > 100 µM | Hs-578T > 100 µM | MCF7 > 100 µM | NCI-H226 > 100 µM | BT-549 > 100 µM | HT-29 > 100 µM | HOP-62 > 100 µM | U-251 > 100 µM | ACHN > 100 µM | PC-3 > 100 µM | SF-295 > 100 µM | OVCAR-4 > 100 µM | TK-10 > 100 µM | MDA-MB-435 > 100 µM | M14 > 100 µM | HCT-116 > 100 µM | SK-MEL-5 > 100 µM
active: HL-60 < 0.01 µM

COc1cccc(C2c3cc4c(cc3OC(C)(N3CCCC3)C2C)OCO4)c1OC (centres undefined)
4.83 µM: HCT-15
inactive: HOP-92 14.3 µM | CAKI-1 5.06 µM | K562 6.15 µM | HL-60 4.91 µM | NCI-H23 15 µM | IGROV-1 5.82 µM | MDA-N 10.6 µM | COLO 205 7.67 µM | OVCAR-3 5.07 µM | SK-MEL-2 7.74 µM | KM12 6.78 µM | SR 4.31 µM | OVCAR-8 10.8 µM | RPMI-8226 8.97 µM | T47D 4.24 µM | HCC 2998 19.1 µM | SF-268 10.9 µM | OVCAR-5 16 µM | SN12C 6.52 µM | NCI/ADR-RES 7.46 µM | DU-145 10 µM | SNB-75 8.89 µM | SK-MEL-28 25.9 µM | NCI-H460 11.7 µM | A549 5.58 µM | LOX IMVI 11.7 µM | RXF 393 14.8 µM | EKVX 14.9 µM | CCRF-CEM 4.85 µM | UO-31 6.41 µM | UACC-257 16 µM | SK-OV-3 5.82 µM | Malme-3M 18.8 µM | MDA-MB-231 19.5 µM | UACC-62 16.9 µM | NCI-H522 13.9 µM | SW-620 6.89 µM | SNB-19 22.8 µM | 786-0 14.5 µM | Hs-578T 10.7 µM | MCF7 11.9 µM | NCI-H226 14.4 µM | MOLT-4 5.11 µM | BT-549 6.67 µM | HT-29 5.14 µM | HOP-62 14.3 µM | U-251 5.25 µM | ACHN 3.83 µM | PC-3 5.11 µM | SF-295 9.1 µM | OVCAR-4 5.18 µM | TK-10 13.7 µM | MDA-MB-435 14.8 µM | M14 14.6 µM | HCT-116 4.3 µM | SK-MEL-5 13.4 µM

OC1(c2ccc(Cl)cc2)c2ccccc2C2=NCc3ccccc3CN21 (centres undefined)
inactive: HOP-92 13.1 µM | CAKI-1 12.3 µM | K562 2.68 µM | HL-60 4.94 µM | NCI-H23 6.97 µM | IGROV-1 3.75 µM | MDA-N 12.9 µM | COLO 205 4.9 µM | OVCAR-3 1.7 µM | SK-MEL-2 1.2 µM | KM12 4.7 µM | SF-539 7.13 µM | SR 8.53 µM | OVCAR-8 9.55 µM | RPMI-8226 > 21.3 µM | T47D 23.3 µM | HCC 2998 2.18 µM | SF-268 12.4 µM | OVCAR-5 13.1 µM | SN12C 17.5 µM | NCI/ADR-RES 13.1 µM | DU-145 17.9 µM | SNB-75 6.35 µM | SK-MEL-28 2.75 µM | NCI-H460 11.2 µM | A549 4.58 µM | LOX IMVI 9.2 µM | EKVX 5.48 µM | CCRF-CEM 7.6 µM | UO-31 7.98 µM | UACC-257 14.3 µM | SK-OV-3 1.22 µM | Malme-3M 13.9 µM | MDA-MB-231 16.6 µM | UACC-62 13.6 µM | NCI-H522 14.1 µM | SW-620 2.69 µM | SNB-19 3.51 µM | 786-0 5.45 µM | A498 13.6 µM | Hs-578T 14.9 µM | MCF7 4.8 µM | NCI-H226 5.47 µM | MOLT-4 3.37 µM | BT-549 18.6 µM | HT-29 14.7 µM | HOP-62 6.47 µM | U-251 7.24 µM | ACHN 4.45 µM | PC-3 4.74 µM | SF-295 15.3 µM | OVCAR-4 12.6 µM | TK-10 14.6 µM | MDA-MB-435 7.45 µM | M14 2.96 µM | HCT-116 6.62 µM | SK-MEL-5 13.2 µM
7.14 µM: HCT-15

Cc1ccc2c(/C=C/c3ccc(N(C)C)cc3)ccc(C(C)C)cc1-2
inactive: HOP-92 76.4 µM | CAKI-1 > 100 µM | K562 > 100 µM | HL-60 12.9 µM | NCI-H23 > 100 µM | IGROV-1 > 100 µM | MDA-N > 100 µM | COLO 205 > 100 µM | OVCAR-3 > 100 µM | SK-MEL-2 > 100 µM | KM12 > 100 µM | SR 27.9 µM | OVCAR-8 > 100 µM | RPMI-8226 > 100 µM | T47D 36.9 µM | SF-268 > 100 µM | OVCAR-5 > 100 µM | SN12C > 100 µM | NCI/ADR-RES > 100 µM | DU-145 > 100 µM | SNB-75 > 100 µM | SK-MEL-28 > 100 µM | A549 > 100 µM | LOX IMVI > 100 µM | RXF 393 > 100 µM | EKVX 94.2 µM | CCRF-CEM 37.2 µM | UO-31 > 100 µM | UACC-257 48.9 µM | SK-OV-3 > 100 µM | Malme-3M > 100 µM | MDA-MB-231 > 100 µM | UACC-62 > 100 µM | NCI-H522 99.3 µM | SW-620 > 100 µM | 786-0 > 100 µM | A498 83.4 µM | Hs-578T > 100 µM | MCF7 > 100 µM | NCI-H226 > 100 µM | MOLT-4 > 100 µM | BT-549 > 100 µM | HT-29 49.1 µM | HOP-62 > 100 µM | U-251 > 100 µM | ACHN > 100 µM | PC-3 > 100 µM | SF-295 > 100 µM | TK-10 > 100 µM | MDA-MB-435 > 100 µM | M14 > 100 µM | HCT-116 > 100 µM | SK-MEL-5 22 µM
